Values quoted from earlier work as cited in patent US5891469A, “Solid Coprecipitates for enhanced bioavailability of lipophilic substances” (Pharmos Corporation, priority 1997, dated 1999).

Legend:
[1] = for solubility in aqueous solutions: cannabinoids, depending upon the conditions (Garret and Hunt 1974)
[2] = like other lipophilic drugs

SMILES: COC1=C(OC)C(=O)C(C/C=C(\C)CC/C=C(\C)CC/C=C(\C)CC/C=C(\C)CC/C=C(\C)CC/C=C(\C)CC/C=C(\C)CC/C=C(\C)CC/C=C(\C)CCC=C(C)C)=C(C)C1=O [Coenzyme Q10, 2,3-dimethoxy-5-methyl-6-decaprenyl-1,4-benzoquinone]
- solubility in water (in words) ([1]; due to long side chain of 10 isoprenoid units): practically insoluble in water

SMILES: CCCCCc1cc(O)c2c(c1)OC(C)(C)[C@@H]1CCC(C)=C[C@@H]21 [tetrahydrocannabinol (THC), tetrahydrocannabinol]
- maximal plasma levels (oral dosing of 20 mg THC in a sesame oil formulation (Wall et al. 1983)): around 10 ng/ml
- human bioavailability following oral ingestion, mean estimates (oral, depending on the vehicle used): 6 to 12%

SMILES: CCCCCc1cc(O)c2c(c1)OC(C)(C)c1ccc(C)cc1-2 [cannabinol]
- solubility in aqueous solutions [1]: a few micrograms/ml or less

SMILES: C=C(C)[C@@H]1CCC(C)=C[C@H]1c1c(O)cc(CCCCC)cc1O [cannabidiol]
- solubility in aqueous solutions [1]: a few micrograms/ml or less

SMILES: CCCCCCC(C)(C)c1cc(O)c2c(c1)OC(C)(C)[C@H]1CC=C(CO)C[C@H]21 [Dexanabinol, (+)-(3S, 4S)-7-hydroxy-Δ^6-tetra hydrocannabinol-1,1-dimetylheptyl]
- oral bioavailability [2]: poor oral bioavailability
- solubility in water ([1]; practically insoluble in water): less than 50 μg/ml

SMILES: CCCCCc1cc(O)c2c(c1)OC(C)(C)[C@@H]1CC=C(C)C[C@@H]21 [Δ^6 -tetrahydrocannabinol (Δ^6 -THC), Δ^6 -tetrahydrocannabinol]
- solubility in aqueous solutions [1]: a few micrograms/ml or less

SMILES: CCCCCc1cc(O)c2c(c1)OC(C)(C)[C@@H]1CCC(C)=C[C@@H]21 [Δ^1 -tetrahydrocannabinol (Δ^1 -THC), Δ^1 -tetrahydrocannabinol]
- solubility in aqueous solutions [1]: a few micrograms/ml or less
